Counter-ions that a name gives are not always drawn.
Tested on: MTT (mouse pheochromocytoma)
Assay: IC50 of cell viability (ATP content)
Details: (24 or 48 h)
How it was run: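 MTT mouse pheochromocytoma cells in white 1536-well plates were treated for 24 or 48 hrs with library compounds at 8 final concentrations from 0.5 nM to 46 µM. ATP content was measured with CellTiter-Glo luminescence, using positive-control wells as 100% and DMSO wells as 0%. IC50 came from a four-parameter logistic fit.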

Row | SMILES | IC50 of cell viability [µM]
1 | Nc1nc(N)c2nc(-c3ccccc3)c(N)nc2n1 [Triamterene] | > 46
2 | CCO[C@H]1O[C@@H]([C@H](COCc2ccccc2)OCc2ccccc2)[C@@H](OCc2ccccc2)[C@@H]1O [Tribenoside] | > 46
3 | CCCCCCCC(=O)OCC(COC(=O)CCCCCCC)OC(=O)CCCCCCC [Tricaprylin] | > 46
4 | COP(=O)(OC)C(O)C(Cl)(Cl)Cl (configuration not stated) [Trichlorfon] | > 46
5 | N[S+](=O)([O-])c1cc2c(cc1Cl)N[C@@H](C(Cl)Cl)N[S+]2(=O)[O-] [Trichlormethiazide] | > 46
6 | O=C(O)C(Cl)(Cl)Cl [Trichloroacetic acid] | > 46
7 | ClC=C(Cl)Cl [Trichloroethylene] | > 46
8 | O=C(O)COc1nc(Cl)c(Cl)cc1Cl [Triclopyr] | > 46
9 | Oc1cc(Cl)ccc1Oc1ccc(Cl)cc1Cl [Triclosan] | > 46
10 | NCCNCCNCCN [Triethylenetetramine] | > 46
11 | Cl.O=C(CCCN1CCC(O)(c2cccc(C(F)(F)F)c2)CC1)c1ccc(F)cc1 [Trifluperidol hydrochloride] | > 46
12 | O=c1[nH]c(=O)n(C2C[C@H](O)[C@@H](CO)O2)cc1C(F)(F)F (some centres not stated) [Trifluridine] | > 46
13 | CC(=O)Oc1cc(C(F)(F)F)ccc1C(=O)O [Triflusal] | > 46
14 | NC(Cc1ccc(Oc2cc(I)c(O)c(I)c2)c(I)c1)C(=O)O (configuration not stated) [Triiodothyronine, reverse] | > 46
15 | C[C@@H](CN(C)C)CN1c2ccccc2Sc2ccccc21.C[C@@H](CN(C)C)CN1c2ccccc2Sc2ccccc21.O=C(O)[C@@H](O)[C@@H](O)C(=O)O [Trimeprazine tartrate] | > 46
16 | COc1ccc(CN2CCNCC2)c(OC)c1OC [Trimetazidine dihydrochloride] | > 46
17 | CN1C(=O)OC(C)(C)C1=O [Trimethadione] | > 46
18 | COc1cc(C(=O)NCc2ccc(OCCN(C)C)cc2)cc(OC)c1OC [Trimethobenzamide hydrochloride] | > 46
19 | COc1cc(Cc2cnc(N)nc2N)cc(OC)c1OC [Trimethoprim] | > 46
20 | COc1cc(C[C@H]2NCCc3cc(O)c(O)cc32)cc(OC)c1OC [Trimethoquinol] | > 46
21 | COc1cc(C(=O)N2CCOCC2)cc(OC)c1OC [Trimetozine] | > 46

Row | SMILES | IC50 of cell viability [µM]
22 | C[C@@H](CN(C)C)CN1c2ccccc2CCc2ccccc21 [Trimipramine maleate salt] | > 46
23 | CC1=CC2=C(O1)C(=C3OC(=O)\C=C(C)/C3=C2)C [Trioxsalen] | > 46
24 | CCCCCCCCCCCCCCCC(=O)OCC(COC(=O)CCCCCCCCCCCCCCC)OC(=O)CCCCCCCCCCCCCCC [Tripalmitin] | > 46
25 | CC1(C)CC/C(=C\c2ccc(Cl)cc2)C1(O)Cn1cncn1 (configuration not stated) [Triticonazole] | > 46
26 | COc1cc(C(=S)N2CCOCC2)cc(OC)c1OC [Tritiozina] | > 46
27 | CC(C)(C)CC(C)(C)c1ccc(OCCO)cc1 [Triton X-100] | > 46
28 | Cc1c(C)c2c(c(C)c1O)CCC(C)(COc1ccc(CC3SC(=O)NC3=O)cc1)O2 (configuration not stated) [Troglitazone] | > 46
29 | OCCN(CCO)CCO [Trolamine] | > 46
30 | CO[C@@H]1C[C@H](O[C@H]2[C@H](C)[C@H](O[C@@H]3O[C@@H](C)C[C@@H](N(C)C)[C@H]3OC(C)=O)[C@H](C)C[C@]3(CO3)C(=O)[C@H](C)[C@H](OC(C)=O)[C@H](C)[C@H](C)OC(=O)[C@@H]2C)O[C@H](C)[C@H]1OC(C)=O [Troleandomycin] | > 46
31 | N#CC(C#N)=Cc1ccc(O)c(O)c1 [Tyrphostin 23] | > 46
32 | N#CC(C#N)=Cc1cc(O)c(O)c(O)c1 [Tyrphostin 25] | > 46
33 | BrC1=C2N=CC=NC2=CC=C1N\C3=N\CCN3 [UK 14,304] | > 46
34 | Oc1ncc(N(CCCl)CCCl)c(O)n1 [URACIL MUSTARD] | > 46
35 | Oc1ccnc(O)n1 [URACIL] | > 46
36 | COC1=C(C=CC=C1)N2CCN(CCCN\C3=C\C(=O)N(C)C(=O)N3C)CC2 [URAPIDIL] | > 46
37 | CCOC(N)=O [URETHANE] | > 46
38 | Oc1nc(O)c2nc(O)[nH]c2n1.[NaH] [URIC ACID] | > 46
39 | COC1=C(OC)C(=O)C(C/C=C(\C)CC/C=C(\C)CC/C=C(\C)CC/C=C(\C)CC/C=C(\C)CC/C=C(\C)CC/C=C(\C)CC/C=C(\C)CC/C=C(\C)CCC=C(C)C)=C(C)C1=O [Ubidecarenone] | > 46
40 | O=C(Nc1ccc(/C=C/c2ccc(NC(=O)c3cc([S+](=O)([O-])O)c4cccnc4c3O)cc2[S+](=O)([O-])O)c([S+](=O)([O-])O)c1)c1cc([S+](=O)([O-])O)c2cccnc2c1O [Ubistatin A] | > 46
41 | C=CCCCCCCCCC(=O)O [Undecylenic acid] | > 46
42 | CCCCCCCC(=O)CC[C@H]1[C@@H](C/C=C/CCCC(=O)OC(C)C)[C@@H](O)C[C@H]1O [Unoprostone Isopropyl Ester] | > 46

Row | SMILES | IC50 of cell viability [µM]
43 | Cl.COC1=C(C=CC=C1)N2CCN(CCCNC/3=C/C(=O)N(C)C(=O)N3C)CC2 [Urapidil hydrochloride] | > 46
44 | NC(N)=O [Urea] | > 46
45 | Oc1nc(O)c2[nH]c(O)nc2n1 [Uric acid] | > 46
46 | Cc1onc(-c2ccccc2)c1-c1ccc([S+](N)(=O)[O-])cc1 [VALDECOXIB] | > 46
47 | CC(C)[C@H](N)C(=O)OCC(CO)OC[N]1C=NC2=C1\N=C(\N)NC2=O (some centres not stated) [VALGANCICLOVIR HYDROCHLORIDE] | > 46
48 | CC(C)[C@@H](N)C(=O)O [VALINE] | > 46
49 | C=C[C@@]1(C)C[C@H](OC(=O)CSC(C)(C)CNC(=O)[C@@H](N)C(C)C)[C@@]2(C)C(C)CC[C@@]3(CCC(=O)[C@@H]32)[C@H](C)[C@H]1O (some centres not stated) [VALNEMULIN HYDROCHLORIDE] | > 46
50 | CCCCC(=O)N(Cc1ccc(-c2ccccc2-c2nn[nH]n2)cc1)C(C(=O)O)C(C)C (configuration not stated) [VALSARTAN] | > 46
51 | CN[C@H](CC(C)C)C(=O)N[C@H]1C(=O)N[C@@H](CC(N)=O)C(=O)N[C@H]2C(=O)N[C@H]3C(=O)N[C@H](C(=O)N[C@H](C(=O)O)c4cc(O)cc(O)c4-c4cc3ccc4O)[C@H](O)c3ccc(c(Cl)c3)Oc3cc2cc(c3O[C@@H]2OC(CO)[C@@H](O)[C@H](O)[C@H]2O[C@H]2C[C@](C)(N)[C@H](O)[C@H](C)O2)Oc2ccc(cc2Cl)[C@H]1O (some centres not stated) [VANCOMYCIN HYDROCHLORIDE] | > 46
52 | O=C(O)CC/C=C\CC[C@@H]1[C@@H](N2CCCCC2)[C@@H](O)C[C@@H]1OCc1ccc(-c2ccccc2)cc1 [VAPIPROST HYDROCHLORIDE] | > 46
53 | CCCc1nc(C)c2c(=O)nc(-c3cc([S+](=O)([O-])N4CCN(CC)CC4)ccc3OCC)[nH]n12 [VARDENAFIL HYDROCHLORIDE] | > 46
54 | Clc1ccc(Nc2nnc(Cc3ccncc3)c3ccccc23)cc1 [VATALANIBUM] | > 46
55 | CC(=O)O[C@H]1C[C@@H]2CC[C@@H]3[C@H](CC[C@@]4(C)[C@H]3C[C@H]([N+]3(C)CCCCC3)[C@@H]4OC(C)=O)[C@@]2(C)C[C@@H]1N1CCCCC1 [VECURONIUM BROMIDE] | > 46
56 | COc1ccc(C(CN(C)C)C2(O)CCCCC2)cc1 (configuration not stated) [VENLAFAXINE] | > 46
57 | COc1ccc(CCN(C)CCCC(C#N)(c2ccc(OC)c(OC)c2)C(C)C)cc1OC (configuration not stated) [VERAPAMIL] | > 46
58 | C=CC(N)CCC(=O)O (configuration not stated) [VIGABATRIN] | > 46
59 | CC[C@@]12CCCN3CCc4c(n(c5ccccc45)[C@](O)(C(=O)OC)C1)C32 (some centres not stated) [VINCAMINE] | > 46
60 | CCOC(=O)\C1=C\[C@@]2(CC)CCCN3CCC4=C([C@@H]23)[N]1C5=C4C=CC=C5 [VINPOCETINE] | > 46
61 | CCOC(=O)\C1=C\[C@]2(CC)CCCN3CCC4=C([C@H]23)[N]1C5=C4C=CC=C5 [VINPOCETINE] | > 46
62 | NCCCC(N)CC(=O)NC1CNC(=O)C(C2CC(O)NC(N)=N2)NC(=O)/C(=C/NC(N)=O)NC(=O)C(CO)NC(=O)C(CO)NC1=O (configuration not stated) [VIOMYCIN SULFATE] | > 46

From the supplement of paper PMC3974653
